From patent publication US9561288B2, “Combinations and modes of administration of therapeutic agents and combination therapy” (Abraxis BioScience, LLC, priority 2005, dated 2017)

Legend:
[1] = test system: MDA-MB-435 human breast tumor xenografts; assay: MDA-MB-435 human tumor xenografts treated with HKP, Abraxane® or both; assay type: in vivo, mice; settings: nineteen weeks; HKP 250 ug i.v. weekly x16; Abraxane® 10 mg/kg/day i.v. x5 days
Method: Methods: MDA-MB-435 human tumor xenografts were established at an average tumor volume of 100 mm^3, mice were randomized into groups of 12-13 animals and treated with HKP, Abraxane®, or HKP and Abraxane®. HKP was delivered i.v. (250 ug), once a week, for 16 weeks. Abraxane® was administered i.v., daily for 5 days at 10 mg/kg/day only for the first week of treatment. The Abraxane® dose used was substantially below its MTD (30 mg/kg/day, qd×5) to prevent the tumor from complete regression so effect of HKP could be noted.

Abraxane®-treated cells [2] = assay: In vitro cellular cytotoxicity assay with VEGF-A or Avastin®; assay type: cell-based; settings: Abraxane® 1 to 24 nM
Method: Cells were treated with Abraxane® in a range of concentrations (1 to 24 nM).

Abraxane®-treated cells [3] = assay: In vitro clonogenic assay; assay type: cell-based
Method: Cells were treated with saline control, Abraxane® alone, VEGF-A alone, Avastin® alone, Abraxane®+VEGF-A or Abraxane®+Avastin®.

[4] = test system: Luciferase-expressing MDA-MB-231 human breast cancer xenografts; assay: Luciferase-expressing MDA-MB-231 xenografts, tumor growth (Example 26); assay type: in vivo, nude (nu/nu) mice
Method: Abraxane®, either alone or in combination, was administered at 10 mg/kg/day daily for 5 days in two cycles separated by 1 week. […] Mice were monitored for tumor growth and drug toxicity. Mice were sacrificed when the mean tumor volume in the saline-treated control group reached 2000 mm^3.
Tumor growth inhibition (TGI) was calculated by comparing mean tumor volume of test groups to that of the control group at the last measurement of the control group.

[5] = test system: MDA-MB-231-Luc+ human breast cancer xenografts; assay: MDA-MB-231-Luc+ xenografts, one or two cycles of Abraxane® with Avastin® (Example 29); assay type: in vivo, nude (nu/nu) mice; settings: for % Complete Regression: day 65
Method: One or two cycles of Abraxane® were administered. In two-cycle Abraxane® treatment, a second cycle of Abraxane® (10 mg/kg, i.v. qd×5) was administered one week after conclusion of the first cycle.

MDA-MB-435-Luc+ tumors = assay: MDA-MB-435-Luc+ tumor growth (Example 31); assay type: in vivo, ICR SCID mice
Method: MDA-MB-435-Luc+ (“435-Luc+”) cells were implanted subcutaneously into the mammary fat pad of 4 to 6 week old female ICR SCID mice (Taconic, Hudson, N.Y.). Every 2-3 days, perpendicular tumor diameters were measured by digital caliper and used to calculate tumor volume according to the formula: volume=Dd^2π/6, where D=larger diameter and d=smaller diameter. […] Animal care was in accordance with institutional guidelines.
Two cycles of Abraxane® treatment were administered, each for 5 consecutive days with one week of rest between cycles. […] To allow maximal development of metastatic foci, mice were sacrificed when the average tumor volume in the control group reached 2000 mm^3.

[6] = test system: lymph node metastasis of MDA-MB-435-Luc+; assay: MDA-MB-435-Luc+ lymph node metastasis; assay type: in vivo, ICR SCID mice; settings: ABX 10 mg/kg two cycles; Avastin® 4 mg/kg
Method: Two cycles of Abraxane® treatment were administered, each for 5 consecutive days with one week of rest between cycles. […] The control group received PBS injected i.v. or i.p. […] Lymph nodes and lungs were excised, washed in PBS, and homogenized in 0.35 ml of cold CCLR buffer (Promega, Madison, Wis.) containing a protease inhibitor cocktail and PMSF (Sigma, Mo.). Cell debris was removed by centrifugation. Protein concentrations of cleared lysates were determined by Bradford assay (Bio-Rad, Hercules, Calif.). […] CCLR buffer without tissue homogenates and lymph nodes or lungs of non-tumor bearing mice were assayed for background signal and subtracted from the results. The net results were expressed as relative light units (“RLU”) normalized per mg of total lysate protein. […] This value was chosen because it was the minimal signal reproducibly detected above background in metastatic tissues, independently confirmed by immunohistochemical detection (data not shown). Differences in lymph node and lung metastases were assessed for statistical significance by Fisher's exact test using GraphPad InStat (GraphPad Inc., San Diego, Calif.) or SPSS 14.0 (SPSS, Inc., Chicago, Ill.).

[7] = test system: pulmonary metastasis of MDA-MB-435-Luc+; assay: MDA-MB-435-Luc+ pulmonary metastasis; assay type: in vivo, ICR SCID mice; settings: ABX 10 mg/kg two cycles; Avastin® 4 mg/kg
Method: Tumor metastasis was determined by measuring luciferase activity in tissue extracts derived from 10 axillary lymph nodes (“LN”) and both lobes of the lungs. Lymph nodes and lungs were excised, washed in PBS, and homogenized in 0.35 ml of cold CCLR buffer (Promega, Madison, Wis.) containing a protease inhibitor cocktail and PMSF (Sigma, Mo.). Cell debris was removed by centrifugation. Protein concentrations of cleared lysates were determined by Bradford assay (Bio-Rad, Hercules, Calif.). Fifty μl of Luciferase Assay Reagent (Promega, Madison, Wis.) was mixed with 10 μl of cleared lysate and a 10 second average of luminescence was detected using a single tube luminometer (Berthold, Germany). […] The net results were expressed as relative light units (“RLU”) normalized per mg of total lysate protein. […] Differences in lymph node and lung metastases were assessed for statistical significance by Fisher's exact test using GraphPad InStat (GraphPad Inc., San Diego, Calif.) or SPSS 14.0 (SPSS, Inc., Chicago, Ill.).

[8] = test system: MDA-MB-231-Luc+ lymphatic and pulmonary metastases; assay: Lymphatic and pulmonary metastasis of well-established 231-Luc+ tumors (Example 32); assay type: in vivo, nu/nu mice; settings: Abraxane® 30 mg/kg qd×5; Avastin® 4 mg/kg q2×wkly; tumors ~460 mm^3
Method: MDA-MB-231 or 231-Luc^+ cells were implanted into the MFP of 4 to 6 week old female nu/nu mice (Harlan Sprague-Delaney, Indianapolis, Ind.) by standard methods. Briefly, mice were anesthetized and 100 μl of cell suspension containing 4×10^6 cells and 50% Matrigel (Sigma, Mo.) were injected into the MFP. Every 2-3 days, perpendicular tumor diameters were measured by digital caliper and used to calculate tumor volume according to the formula: Volume=Dd^2π/6, where D=larger diameter and d=smaller diameter. […] Animal care was in accordance with institutional guidelines.
Luciferase-expressing orthotopic MDA-MB-231 (231-Luc+) xenografts were grown to well-established tumors (˜460 mm^3) and randomized to four groups of N=5, 6 or 7.
Metastases of MDA-MB-231-Luc+ tumor cells were identified by measuring luciferase activity in tissue extracts from lymph nodes and lungs, as described in Example 31 above. […] This value was chosen because it represented the minimal signal which could be reproducibly detected above background in tissues in which metastases were independently confirmed by immunohistochemical detection of human cells. The net results were expressed as relative light units (RLU) normalized per mg of total lysate protein, and are presented in FIG. 17A (lymphatic metastasis) and FIG. 17B (pulmonary metastasis).

MCF7-S breast carcinoma = assay: Cytotoxic activity in MCF7-S; assay type: cell-based, human
[9] = test system: MCF7-R (pgp+) multidrug resistant variant
Method: (§1) Its cytotoxicity was also assessed against the NCI-60 human tumor cell line panel.

[10] = test system: NCI-60 human tumor cell line panel; assay: NCI-60 human tumor cell line panel; assay type: cell-based; settings: NCI 60 panel
Method: as §1

VEGF-A protein = VEGF-A protein in tumor extracts by ELISA
Method: All drugs and control saline were administered i.v. in a volume of 100 μl daily for 5 days. Mice were sacrificed, tumors were harvested and tumor cellular extracts were prepared. VEGF-A protein levels in tumor extracts were determined by ELISA.

[11] = test system: MDA-MB-231 human breast cancer xenografts; assay: MDA-MB-231 xenografts: tumor growth, necrosis, hypoxia (Example 24); settings: i.v. qdx5; Taxol® 10, Abraxane® 15, Doxorubicin 10 mg/kg/day
[12] = Experiment No. 1: one cycle, Avastin® 2 mg/kg
[13] = Experiment No. 2: two cycles, Avastin® 4 mg/kg

In the case of CNGRC-GG-d(KLAKLAK)2 [HKP], the tumor volume [1] is reported as 4,372 mm^3.
With “Avastin®: anti-VEGF antibody bevacizumab” the “effect of addition on in vitro cytotoxicity of Abraxane®” value (Abraxane®-treated cells [2]) was “increased the in vitro cytotoxicity of Abraxane®”, the “number of colonies formed” value (Abraxane®-treated cells [3]) was “slight reduction in the number of colonies formed” and the “% TGI” value ([4]; Abraxane® 10 mg/kg/day two cycles, Avastin® 4 mg/kg) was 12.56%. The “Mean Tumor Volume” value ([4]; Abraxane® 10 mg/kg/day x5 days, two cycles, Avastin® 4 mg/kg twice a week for 6 weeks) was 2089 ± 251 mm^3, the “% Complete Regression” value ([4]; day 65, Abraxane® two cycles, Avastin® 4 mg/kg) was 0% and the “Mean Tumor Volume” value ([5]; Experiment No. 1: one cycle of Abraxane® 10 mg/kg, Avastin® 2 mg/kg) was 953 ± 127 mm^3. The “% TGI” value [5, 12] was 54.16%, the “% Complete Regression” value [5, 12] was 0% and the “% TGD” value ([5]; Experiment No. 1: one cycle, Avastin® 2 mg/kg, time to 1000 mm^3 vs control) was 13%. For the same compound, the “Mean Tumor Volume” value ([5]; Experiment No. 2: two cycles of Abraxane® 10 mg/kg, Avastin® 4 mg/kg) was 2089 ± 251 mm^3, the “% TGD” value [5, 13] was 7% and the “% TGI” value [5, 13] was 12.56%. The “% Complete Regression” value [5, 13] was 0%, the “% Complete Regressions” value (MDA-MB-435-Luc+ tumors; 92 days) was 0% and the “tumor volume” value (MDA-MB-435-Luc+ tumors; ABX 10 mg/kg i.v. qd×5 two cycles, Avastin® 4 mg/kg i.p. twice a week) was 792 mm^3. For the same compound, the “% TGI” value (MDA-MB-435-Luc+ tumors; ABX 10 mg/kg two cycles, Avastin® 4 mg/kg) was 60.79%, the “Lymph node metastasis % Inhibition vs. Control” value [6] was 100% and the “Pulmonary metastasis % Inhibition vs. Control” value [7] was 50%. For the same compound, the “lymphatic and pulmonary metastases” value [8] was “failed to prevent metastasis”.
In the case of `COc1cc2c(c(OC)c1OC)-c1ccc(SC)c(=O)cc1[C@@H](NC(=O)CCNC(=O)N[C@H]1CCc3cc(OC)c(OC)c(OC)c3-c3ccc(SC)c(=O)cc31)CC2` [IDN5404], the IC50 (MCF7-S breast carcinoma) is reported as 1.7 ± 0.1 nM, the “fold resistance MCF7-R vs MCF7-S” value [9] is reported as > 10 fold and the IC50 ([9]; MCF7-R) is reported as 40 ± 3.8 nM. For the same compound, the IC50 [10] was < 10 nM.
With `COc1cccc2c1C(=O)c1c(O)c3c(c(O)c1C2=O)C[C@@](O)(C(=O)CO)C[C@@H]3O[C@H]1C[C@H](N)[C@H](O)[C@H](C)O1` [Doxorubicin] the VEGF-A (VEGF-A protein; tumor extracts, i.v. qdx5) was 754 ± 49 pg/mg protein, the “increase in VEGF-A protein levels” value (VEGF-A protein; vs saline control) was 124% and the “% TGI” value [11] was 45%. For the same compound, the “Mean Tumor Volume” value [11] was 287 ± 56 mm^3.
